# Test system: 5α-reductase
# Assay: 5α-reductase inhibitory efficacy: DHT produced in testosterone-stimulated dermal papilla cells (DHT ELISA)
# Format: cell-based
# Settings: 50 nM testosterone, 24 hours, produced DHT relative to control
# Experimental: After seeding 1 ml of dermal papilla cells (DPCs) by 5×10^5/ml into each well of a 24-well plate, then incubating the same for 24 hours, each of the reaction products prepared according to procedures described in Examples 1 to 72 was added in amounts of 50 μg/ml, 10 μg/ml and 0 μg/ml, respectively, to individual wells. After 1 hour, the wells were subjected to stimulation using 50 nM testosterone (DMSO dissolved). The supernatant was discarded 24 hours after culturing, to thus obtain DPc pellets. A content of dihydrotestosterone (DHT) (DB52021, Hamburg, Germany) was determined by means of enzyme-linked immune-sorbent assay. DPCs cell pellets were seeded in an amount of 100 μL into each of Dihydrotestosterone (DHT) ELISA microtiter strips coated with rabbit anti-DHT antibody, 25 μL of DHT antiserum was seeded in every well, and subjected to a reaction at 2 to 8° C. for 15 to 20 hours, followed by washing the same three times. Thereafter, 100 μL of DHT-HRP enzyme conjugate was seeded in every well and reacted on a shaker at room temperature for 30 minutes, followed by washing the same three times. Furthermore, 100 μL of substrate was seeded in every well and reacted on a shaker at room temperature for 20 to 30 minutes. Then, the product was treated using 100 μL stop solution, and subjected to measurement of absorbance at 450 nm to express an amount of produced DHT by the absorbance (three times repeated). An amount of produced DHT relative to a control was calculated in terms of an inhibitory rate (%), and results thereof are shown in Table 3 below.
Compound,5α-reductase inhibitory rate (%) (sample concentration 10 μg/ml),5α-reductase inhibitory rate (%) (sample concentration 50 μg/ml)
"CCCCCCCCOC1CCC2(C)C(CCC3(C)C2CC=C2C4C(C)C(C)CCC4(C(=O)O)CCC23C)C1(C)C (stereo not drawn) [Compound in Example 59, O-octyl-ursolic acid]",22,41
β-boswellic acid stearate [Compound in Example 31],31,47
"CCCCCCCCCCCCCCCCCC(=O)O[C@H]1CC[C@@]2(C)C(=CC[C@H]3[C@@H]4CC[C@H]([C@H](C)CC[C@@H](C)C(C)C)[C@@]4(C)CC[C@@H]32)C1 [Compound in Example 45, Campesterol stearate]",26,43
"CCCCCCCCOC1CCC2(C)C(CCC3(C)C2CC=C2C4CC(C)(C)CCC4(C(=O)O)CCC23C)C1(C)C (stereo not drawn) [Compound in Example 61, O-octyl-oleanolic acid]",22,37
"CCCCCCCCOC1CCC2(C)C(=CCC3C2CCC2(C)C(C(C)C=CC(CC)C(C)C)CCC32)C1 (stereo not drawn) [Compound in Example 69, O-octyl-stigmasterol]",19,33
"CC(C)[C@H](C)CC[C@@H](C)[C@H]1CC[C@H]2[C@@H]3CC=C4C[C@@H](O)CC[C@]4(C)[C@H]3CC[C@]12C [Compound in Example 44, Campesterol]",11,21
"CC[C@H](CC[C@@H](C)[C@H]1CC[C@H]2[C@@H]3CC=C4C[C@@H](OC(C)=O)CC[C@]4(C)[C@H]3CC[C@]12C)C(C)C [Compound in Example 15, β-sitosterol acetate]",21,29
"CC(=O)O[C@H]1CC[C@]2(C)[C@H]3CC=C4[C@@H]5[C@@H](C)[C@H](C)CC[C@]5(C)CC[C@@]4(C)[C@]3(C)CC[C@H]2C1(C)C [Compound in Example 11, α-amyrin acetate]",31,42
ursolic acid acetate [Compound in Example 19],22,31
"CC(=O)OC1CCC2(C)C(CCC3(C)C2CC=C2C4C(C)C(C)CCC4(C)CCC23C)C1(C)C(=O)O (stereo not drawn) [Compound in Example 30, β-boswellic acid acetate]",14,29
"C[C@H]1[C@H](C)CC[C@]2(C(=O)O)CC[C@]3(C)C(=CC[C@@H]4[C@@]5(C)CC[C@H](O)C(C)(C)[C@@H]5CC[C@]43C)[C@H]12 [Compound in Example 18, ursolic acid]",16,29
brassicasterol stearate [Compound in Example 47],24,39
oleanolic acid stearate [Compound in Example 25],35,41
"C[C@]12CC[C@H](O)CC1=CC[C@@H]1[C@@H]2CC[C@]2(C)C(=O)CC[C@@H]12 [Compound in Example 36, dihydroandrosterone]",9,28
"CCCCCCCCCCCCCCCCCCOC1CCC2(C)C(CCC3(C)C2CC=C2C4C(C)C(C)CCC4(C(=O)O)CCC23C)C1(C)C (stereo not drawn) [Compound in Example 60, O-octadecyl-ursolic acid]",35,49
α-amyrin stearate [Compound in Example 13],45,57
"CC(=O)OC1CCC2(C)C(CCC3(C)C2CC=C2C4CC(C)(C)CCC4(C)CCC23C)C1(C)C(=O)O (stereo not drawn) [Compound in Example 27, α-boswellic acid acetate]",21,29
fucosterol stearate [Compound in Example 49],25,41

Compound,5α-reductase inhibitory rate (%) (sample concentration 10 μg/ml),5α-reductase inhibitory rate (%) (sample concentration 50 μg/ml)
"CCCCCCCCCCCCCCCCCC(=O)O[C@H]1CC[C@@]2(C)C(=CC[C@H]3[C@@H]4CC[C@H]([C@H](C)CCCC(C)C)[C@@]4(C)CC[C@@H]32)C1 [Compound in Example 41, cholesterol stearate]",26,39
"CC(C)=CCC[C@@H](C)[C@H]1CC[C@H]2[C@@H]3CC=C4C[C@@H](O)CC[C@]4(C)[C@H]3CC[C@]12C [Compound in Example 38, desmosterol]",12,31
"CC(C)=CC(=O)OC1CCC2(C)C(CCC3(C)C2CC=C2C4CC(C)(C)CCC4(C)CCC23C)C1(C)C (stereo not drawn) [Compound in Example 3, β-amyrin 3-methyl-2-butenate]",28,41
"CC1(C)CC[C@]2(C)CC[C@]3(C)C(=CC[C@@H]4[C@@]5(C)CC[C@H](O)C(C)(C)[C@@H]5CC[C@]43C)[C@@H]2C1 [Compound in Example 1, β-amyrin]",15,28
"CCCCCCCCCCCCCCCCCCO[C@H]1CC[C@@]2(C)C(=CC[C@H]3[C@@H]4CC[C@H]([C@H](C)CC[C@@H](CC)C(C)C)[C@@]4(C)CC[C@@H]32)C1 [Compound in Example 58, O-octadecyl-β-sitosterol]",31,46
"CCCCCCCCO[C@H]1CC[C@@]2(C)C(=CC[C@H]3[C@@H]4CC[C@H]([C@H](C)CCCC(C)C)[C@@]4(C)CC[C@@H]32)C1 [Compound in Example 68, O-octyl-cholesterol]",35,45
"CCCCCCCCOC1CCC2(C)C(=CCC3C2CCC2(C)C(C(C)CCC=C(C)C)CCC32)C1 (stereo not drawn) [Compound in Example 67, O-octyl-desmosterol]",24,41
"CCCCCCCCOC1CCC2(C)C(=CCC3C2CCC2(C)C(C(C)C=CC(C)C(C)C)CCC32)C1 (stereo not drawn) [Compound in Example 71, O-octyl-brassicasterol]",29,38
"CCCCCCCCOC1CCC2(C)C(=CCC3C2CCC2(C)C(C(C)CCC(CC)C(C)C)CCC32)C1 (stereo not drawn) [Compound in Example 57, O-octyl-β-sitosterol]",21,41
"CCCCCCCCOC1CCC2(C)C(CCC3(C)C2C(=O)C=C2C4CC(C)(C(=O)O)CCC4(C)CCC23C)C1(C)C (stereo not drawn) [Compound in Example 66, O-octyl-glycyrrhetinic acid]",33,51
"CC(C)[C@@H](C)/C=C/[C@@H](C)[C@H]1CC[C@H]2[C@@H]3CC=C4C[C@@H](O)CC[C@]4(C)[C@H]3CC[C@]12C [Compound in Example 46, brassicasterol]",8,19
"CC1(C)[C@@H](O)CC[C@]2(C)[C@H]3C(=O)C=C4[C@@H]5C[C@@](C)(C(=O)O)CC[C@]5(C)CC[C@@]4(C)[C@]3(C)CC[C@@H]12 [Compound in Example 34, glycyrrhetinic acid]",6,18
"CC1(C)CC[C@]2(C(=O)O)CC[C@]3(C)C(=CC[C@@H]4[C@@]5(C)CC[C@H](O)C(C)(C)[C@@H]5CC[C@]43C)[C@@H]2C1 [Compound in Example 22, oleanolic acid]",7,16
"C/C=C(\CC[C@@H](C)[C@H]1CC[C@H]2[C@@H]3CC=C4C[C@@H](OCCCCCCCC)CC[C@]4(C)[C@H]3CC[C@]12C)C(C)C [Compound in Example 72, O-octyl-fucosterol]",19,35
"C[C@H]1[C@H](C)CC[C@]2(C)CC[C@]3(C)C(=CC[C@@H]4[C@@]5(C)CC[C@H](O)C(C)(C)[C@@H]5CC[C@]43C)[C@H]12 [Compound in Example 10, α-amyrin]",13,29
"CCCCCCCCCCCCCCCCCC(=O)O[C@H]1CC[C@@]2(C)C(=CC[C@H]3[C@@H]4CC[C@H]([C@H](C)CC[C@@H](CC)C(C)C)[C@@]4(C)CC[C@@H]32)C1 [Compound in Example 17, β-sitosterol stearate]",31,42
"CC[C@H](/C=C/[C@@H](C)[C@H]1CC[C@H]2[C@@H]3CC=C4C[C@@H](O)CC[C@]4(C)[C@H]3CC[C@]12C)C(C)C [Compound in Example 42, Stigmasterol]",8,24
"CC1(C)CC[C@]2(C)CC[C@]3(C)C(=CC[C@@H]4[C@@]5(C)CC[C@@H](O)[C@](C)(C(=O)O)[C@@H]5CC[C@]43C)[C@@H]2C1 [Compound in Example 26, α-boswellic acid]",10,19

# Reference: patent US20150246058A1, “COMPOSITION FOR PREVENTING HAIR LOSS AND ACCELERATING HAIR GROWTH” (RNS CO., LTD., priority 2012, published 2015)
